Non-standard residues stand in square brackets, D forms with d. Residues, ends and D or L forms follow the SMILES beside them. *: point of attachment. 5FAM = O=C1OC2(c3ccc(O)cc3Oc3cc(O)ccc32)c2ccc(C(=O)*)cc21
Tests used:
[1] = system: pancreatic cancer cells (BxPC3, PK-8, MIA-Paca2, AsPC1, PL45, Panc-1); assay: Accumulation of various peptides in pancreatic cancer cells (Test Example 5); assay type: cell-based, human; settings: 2 μM, 37° C., 2 hours
Description: Test were conducted to confirm the accumulation of various peptides in each of the cells shown below in Table 11. Further, the peptides shown below in Table 12 were used.
Each peptide was added to each of the cells shown in Table 11 in an amount sufficient to achieve a final concentration in the medium of 2 μM, and following cultivation of the cells at 37° C. for 2 hours, the sample was washed 3 times with a medium containing no peptide to remove any peptide within the medium. Subsequently, the incorporation of each of the peptides into each of the cells was evaluated visually using an inverted fluorescence microscope. Prior to the microscopic examination, the culture supernatant to which the peptide had been added was removed, and following washing three times with 1×PBS (−), a trypsin treatment was conducted to remove the adherent cells, and the resultant was immediately transferred into a new 96-well plate and once again suspended in fresh culture solution before the microscopic examination was performed. In FIG. 17, “L” indicates the cells to which FAM-PCPP11 was added, “d” indicates the cells to which FAM-d was added, “LL” indicates the cells to which FAM-LL was added, “LL2” indicates the cells to which FAM-LL2 was added, and “dd” indicates the cells to which FAM-dd was added.

[2] = system: pancreatic cancer cells (BxPC3, PK-8, MIA-Paca2); assay: Accumulation of FAM-labeled peptides in cells, inverted fluorescence microscope (Test Example 2); assay type: cell-based, human; settings: 2 μM, 37° C., 2 hours
Description: (§1) Tests were conducted to confirm the accumulation of each peptide in each of the cells shown below in Table 8. Further, among the peptides shown below in Table 9, the FAM-PCPP11 used in Test Example 1, the LL peptide in which the N-terminus had been FAM-labeled (FAM-LL), and the Ld peptide in which the N-terminus had been FAM-labeled (FAM-Ld) were used.
(§2) Each of FAM-PCPP11, FAM-LL and FAM-Ld was added to each of the cells shown in Table 8 in an amount sufficient to achieve a final concentration in the medium of 2 μM, and following cultivation of the cells at 37° C. for 2 hours, the sample was washed 3 times with a medium containing no peptide to remove any peptide within the medium. Subsequently, the incorporation of each of the peptides into each of the cells was evaluated visually using an inverted fluorescence microscope. Prior to the microscopic examination, the culture supernatant to which the peptide had been added was removed, and following washing three times with 1×PBS (−), a trypsin treatment was conducted to remove the adherent cells, and the resultant was immediately transferred into a new 96-well plate and once again suspended in fresh culture solution before the microscopic examination was performed. In FIG. 8A, “L” indicates the cells to which FAM-PCPP11 was added, “LL” indicates the cells to which FAM-LL was added, and “Ld” indicates the cells to which FAM-Ld was added. Further, the fluorescent images in the BxPC3 cells indicate a representative example of pancreatic cancer cells.
(§3) Furthermore, FIG. 8B is a graph quantifying the fluorescence detected in each of the above cells in FIG. 8A, with the fluorescence intensity detected in each cell shown relative to a value of 1.0 for the fluorescence detected in the H2110 cells, which is a cell line derived from an adenocarcinoma in a human non-small-cell lung cancer system, to which each of the FAM-PCPP11 and FAM-LL peptides had been added.
Further, each of FAM-PCPP11, FAM-LL and FAM-NmLL was added to each of the cells shown in Table 8 in an amount sufficient to achieve a final concentration in the medium of 2 μM, and following cultivation of the cells at 37° C. for 2 hours, the sample was washed 3 times with a medium containing no peptide to remove any peptide within the medium. Subsequently, the incorporation of each of the peptides into each of the cells was evaluated visually using an inverted fluorescence microscope. […]

[3] = system: human pancreatic cancer growth and progression mouse model (subcutaneous and intraperitoneal human pancreatic cancer cell-transplanted); assay: Selective absorption into tissues of human pancreatic cancer growth and progression mouse model, fluorescence signal (Test Examples 3, 4, Reference Example 2); assay type: in vivo, Balb/c nu/nu mouse; settings: 200 μg intravenously, 30 minutes after injection; for nonspecific absorption compared with conventional PCPP11: FIG. 10A to 10D; for absorption into pancreatic malignant tumors compared with the conventional PCPP11: FIG. 11
Description: Subsequently, 200 μg of each of the fluorescent labeled peptides prepared above in “1.” was injected intravenously into a human pancreatic cancer growth and progression mouse model (Balb/c nu/nu mouse, subcutaneous and intraperitoneal human pancreatic cancer cell-transplanted model). The pharmacokinetics of the peptide 30 minutes after the intravenous injection were then analyzed by tissue analysis of the freshly dissected specimen of the administered mouse, with the absorption quantified by detection of the fluorescence signal. […] In FIG. 9A, “sc tumor” is an abbreviation for “subcutaneous tumor”. In FIG. 9B, “abd tumor” is an abbreviation for “abdominal tumor”, indicating a tumor formed intraperitoneally. Further, “br” indicates the brain, “hr” indicates the heart, “kd” indicates the kidney, and “liv” indicates the liver. Furthermore, “liv. meta” is an abbreviation for “liver metastatic tumor”, and describes a tumor that has metastasized to the liver. Moreover, “panc” indicates the pancreas, and “sp” indicates the spleen. These same abbreviations are also used in subsequent figures. Furthermore, the term “untreated” in FIG. 9A indicates tissues resected from a mouse that was not administered with any fluorescent labeled peptide.
Specifically, first, either 27 μg or 200 μg of fluorescein was injected intravenously into a human pancreatic cancer growth and progression mouse model (Balb/c nu/nu mouse, subcutaneous and intraperitoneal human pancreatic cancer cell-transplanted model). The pharmacokinetics of the FLC 30 minutes after the intravenous injection were then analyzed by tissue analysis of the freshly dissected specimen of the administered mouse, with the absorption quantified by detection of the fluorescence signal.

[4] = system: stomach cancer cells (SCH); assay: Accumulation of FAM-labeled peptides in cells, inverted fluorescence microscope (Test Example 2); assay type: cell-based, human; settings: 2 μM, 37° C., 2 hours
Description: as §1, §2, §3

[5] = system: scirrhous pancreatic cancer model mouse (BxPC3 cells; BxPC3 cells and hMSC); assay: Selective absorption of FAM-LL in tissues of scirrhous pancreatic cancer model mouse (Test Example 6); assay type: in vivo, NOD/SCID mouse; settings: 200 μg into the caudal vein, 30 minutes after administration
Description: FAM-LL was administered to a pancreatic cancer model mouse having scirrhous carcinoma, and the selective absorption of the FAM-LL in various tissues of the mouse was confirmed. A scirrhous pancreatic cancer model mouse having scirrhous carcinoma that forms abundant tumor-stroma interactions was produced in accordance with the method disclosed in Reference Document 1 (Saito K et al., “Stromal mesenchymal stem cells facilitate pancreatic cancer progression by regulating specific secretory molecules through mutual cellular interaction.”, Journal of Cancer, Vol. 9, No. 16, pp. 2916-2929, 2018.). Specifically, a 6-week old NOD/SCID mouse (CLEA Japan Inc., Japan) was raised under pathogen-free conditions. BxPC3 cells (2×10^5 cells) and a cell mixture containing BxPC3 cells (1×10^5 cells) and human mesenchymal stem cells (hMSC) (1×10^5 cells) were each injected subcutaneously into the mouse.
FAM-LL (200 μg) was injected into the caudal vein of the obtained scirrhous pancreatic cancer model mouse. Subsequently, the pharmacokinetics of the peptide 30 minutes after administration were analyzed by tissue analysis of the freshly dissected specimen of the peptide-administered mouse. FIG. 18A is a series of bright-field images (left and center) and a fluorescent image (right) of the tumors in the scirrhous pancreatic cancer model mouse. […]

[6] = FIG. 8B, relative to H2110 cells = 1.0

inhibitory performance on nonspecific absorption into untargeted normal organs [3] | nonspecific absorption compared with conventional PCPP11 [3] | absorption into pancreatic malignant tumors compared with the conventional PCPP11 [3] | absorption into the cancer cell nests inside the tumor tissue [5] | absorption into the tumor tissue [5] | Structure (SMILES) | fluorescence compared with the other peptides [1] | fluorescence detected [1] | fluorescence compared with the sample containing FAM-PCPP11 [2] | increase of quantitative value for the fluorescence compared with FAM-PCPP11 [2, 6] | fluorescence compared with the sample containing FAM-PCPP11 [4] | increase of quantitative value for the fluorescence compared with FAM-PCPP11 [4, 6]
satisfactorily maintained | inhibited even more effectively | 3 fold | strong absorption | strong absorption | C[C@@H](O)[C@H](NC(=O)[C@@H](NC(=O)[C@@H]1CCCN1C(=O)[C@H](CCCNC(=N)N)NC(=O)[C@H](CCCNC(=N)N)NC(=O)CNC(=O)[C@@H]1CCCN1C(=O)[C@H](CCCCN)NC(=O)[C@H](Cc1c[nH]cn1)NC(=O)[C@H](Cc1c[nH]c2ccccc12)NC(=O)[C@@H](NC(=O)[C@@H](NC(=O)[C@@H]1CCCN1C(=O)[C@H](CCCNC(=N)N)NC(=O)[C@H](CCCNC(=N)N)NC(=O)c1ccc2c(c1)C(=O)OC21c2ccc(O)cc2Oc2cc(O)ccc21)[C@@H](C)O)[C@@H](C)O)[C@@H](C)O)C(=O)N[C@@H](Cc1c[nH]c2ccccc12)C(=O)N[C@@H](Cc1c[nH]cn1)C(=O)N[C@@H](CCCCN)C(=O)N1CCC[C@H]1C(=O)O [FAM-LL] (5FAM-RRPTTWHKPGRRPTTWHKP-OH; C-terminus assumed) | stronger fluorescence | particularly strong fluorescence | stronger fluorescence | at least 2.9 fold | stronger fluorescence | at least 2.9 fold
satisfactorily maintained | inhibited even more effectively | approximately 4 fold |  |  | C[C@H](O)[C@@H](NC(=O)[C@@H](Cc1c[nH]c2ccccc12)NC(=O)[C@@H](Cc1c[nH]cn1)NC(=O)[C@@H](CCCCN)NC(=O)[C@H]1CCCN1C(=O)CNC(=O)[C@@H]1CCCN1C(=O)[C@H](CCCCN)NC(=O)[C@H](Cc1c[nH]cn1)NC(=O)[C@H](Cc1c[nH]c2ccccc12)NC(=O)[C@@H](NC(=O)[C@@H](NC(=O)[C@@H]1CCCN1C(=O)[C@H](CCCNC(=N)N)NC(=O)[C@H](CCCNC(=N)N)NC(=O)c1ccc2c(c1)C(=O)OC21c2ccc(O)cc2Oc2cc(O)ccc21)[C@@H](C)O)[C@@H](C)O)C(=O)N[C@@H](C(=O)N1CCC[C@@H]1C(=O)N[C@H](CCCNC(=N)N)C(=O)N[C@H](CCCNC(=N)N)C(=O)O)[C@H](C)O [FAM-Ld] (5FAM-RRPTTWHKPG[dP][dK][dH][dW][dT][dT][dP][dR][dR]-OH; C-terminus assumed) |  |  | stronger fluorescence |  | stronger fluorescence | 
 |  |  |  |  | C[C@@H](O)[C@H](NC(=O)[C@@H](NC(=O)[C@@H]1CCCN1C(=O)[C@H](CCCNC(=N)N)NC(=O)[C@H](CCCNC(=N)N)NC(=O)CNC(=O)[C@@H]1CCCN1C(=O)CNC(=O)[C@@H]1CCCN1C(=O)[C@H](CCCCN)NC(=O)[C@H](Cc1c[nH]cn1)NC(=O)[C@H](Cc1c[nH]c2ccccc12)NC(=O)[C@@H](NC(=O)[C@@H](NC(=O)[C@@H]1CCCN1C(=O)[C@H](CCCNC(=N)N)NC(=O)[C@H](CCCNC(=N)N)NC(=O)c1ccc2c(c1)C(=O)OC21c2ccc(O)cc2Oc2cc(O)ccc21)[C@@H](C)O)[C@@H](C)O)[C@@H](C)O)C(=O)N[C@@H](Cc1c[nH]c2ccccc12)C(=O)N[C@@H](Cc1c[nH]cn1)C(=O)N[C@@H](CCCCN)C(=O)N1CCC[C@H]1C(=O)O [FAM-LL2] (5FAM-RRPTTWHKPGPGRRPTTWHKP-OH; C-terminus assumed) | stronger fluorescence |  |  |  |  | 

From patent US11447525B2 (NIIGATA UNIVERSITY, priority 2018, dated 2022)
